Experiments:
[1] = biological target: T1, Cholecystokinin receptor type A (Homo sapiens, UniProt P32238)
T1 sequence (P32238 whole entry): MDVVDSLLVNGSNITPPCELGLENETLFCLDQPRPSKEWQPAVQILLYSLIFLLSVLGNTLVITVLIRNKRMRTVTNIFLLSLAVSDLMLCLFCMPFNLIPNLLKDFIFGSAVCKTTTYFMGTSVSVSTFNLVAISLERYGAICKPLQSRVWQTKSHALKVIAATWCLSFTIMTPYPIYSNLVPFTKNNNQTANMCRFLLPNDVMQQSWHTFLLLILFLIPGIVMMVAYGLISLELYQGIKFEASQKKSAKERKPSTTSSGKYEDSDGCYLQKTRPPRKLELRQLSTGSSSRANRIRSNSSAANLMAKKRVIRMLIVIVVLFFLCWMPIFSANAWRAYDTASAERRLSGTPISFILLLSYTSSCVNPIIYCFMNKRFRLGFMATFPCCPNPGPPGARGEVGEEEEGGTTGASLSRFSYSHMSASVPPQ

[2] = biological target: T2, Muscarinic acetylcholine receptor M2 (Homo sapiens, UniProt P08172)
T2 sequence (P08172 whole entry): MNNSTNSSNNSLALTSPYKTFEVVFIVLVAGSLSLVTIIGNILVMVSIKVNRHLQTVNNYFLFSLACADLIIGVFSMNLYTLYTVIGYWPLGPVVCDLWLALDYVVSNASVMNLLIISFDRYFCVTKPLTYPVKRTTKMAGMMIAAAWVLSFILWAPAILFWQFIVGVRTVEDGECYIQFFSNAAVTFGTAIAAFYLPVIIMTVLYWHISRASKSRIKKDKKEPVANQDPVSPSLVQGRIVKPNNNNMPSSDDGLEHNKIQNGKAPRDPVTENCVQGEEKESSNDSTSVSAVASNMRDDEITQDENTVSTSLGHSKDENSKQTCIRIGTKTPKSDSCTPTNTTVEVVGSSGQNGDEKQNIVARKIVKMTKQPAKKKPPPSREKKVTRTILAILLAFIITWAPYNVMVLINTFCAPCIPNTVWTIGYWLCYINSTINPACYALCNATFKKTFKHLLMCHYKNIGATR

[3] = biological target: T3, Gastrin/cholecystokinin type B receptor (Homo sapiens, UniProt P32239)
T3 sequence (P32239 whole entry): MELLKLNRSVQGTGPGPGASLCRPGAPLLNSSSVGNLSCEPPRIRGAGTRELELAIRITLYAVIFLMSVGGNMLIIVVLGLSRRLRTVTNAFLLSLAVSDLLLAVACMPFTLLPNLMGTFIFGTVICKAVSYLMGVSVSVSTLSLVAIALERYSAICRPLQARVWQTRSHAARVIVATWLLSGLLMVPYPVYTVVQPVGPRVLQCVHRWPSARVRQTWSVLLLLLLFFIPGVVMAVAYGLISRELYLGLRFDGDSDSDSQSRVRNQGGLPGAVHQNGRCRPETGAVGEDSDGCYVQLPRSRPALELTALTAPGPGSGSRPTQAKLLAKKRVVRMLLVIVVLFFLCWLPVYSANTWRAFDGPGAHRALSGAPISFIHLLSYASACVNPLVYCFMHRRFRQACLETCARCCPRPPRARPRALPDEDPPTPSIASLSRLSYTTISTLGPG

[4] = biological target: T4, Type-1 angiotensin II receptor (Homo sapiens, UniProt P30556)
T4 sequence (P30556 whole entry): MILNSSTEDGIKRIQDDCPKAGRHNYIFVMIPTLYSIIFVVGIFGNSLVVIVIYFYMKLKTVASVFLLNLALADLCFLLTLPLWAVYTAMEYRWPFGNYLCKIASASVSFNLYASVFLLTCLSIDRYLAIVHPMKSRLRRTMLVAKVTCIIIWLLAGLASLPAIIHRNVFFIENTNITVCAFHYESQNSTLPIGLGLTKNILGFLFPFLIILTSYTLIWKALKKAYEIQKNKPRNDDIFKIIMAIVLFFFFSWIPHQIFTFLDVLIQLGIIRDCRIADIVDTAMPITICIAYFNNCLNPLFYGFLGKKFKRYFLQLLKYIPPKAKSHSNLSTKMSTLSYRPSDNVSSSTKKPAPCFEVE

[5] = biological target: Adenosine receptor A2a (Homo sapiens, UniProt P29274)
Adenosine receptor A2a, sequence (P29274 whole entry): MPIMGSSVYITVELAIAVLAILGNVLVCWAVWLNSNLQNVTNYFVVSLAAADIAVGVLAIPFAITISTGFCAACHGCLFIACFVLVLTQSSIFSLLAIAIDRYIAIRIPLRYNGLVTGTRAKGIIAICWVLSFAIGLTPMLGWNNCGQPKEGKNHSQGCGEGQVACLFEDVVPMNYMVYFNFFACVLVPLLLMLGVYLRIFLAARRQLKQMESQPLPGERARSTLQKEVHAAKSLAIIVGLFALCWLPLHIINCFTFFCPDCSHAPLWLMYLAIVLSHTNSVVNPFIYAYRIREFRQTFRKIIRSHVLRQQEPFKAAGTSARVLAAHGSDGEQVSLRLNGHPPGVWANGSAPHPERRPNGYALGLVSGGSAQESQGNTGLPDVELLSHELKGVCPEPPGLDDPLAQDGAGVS

[6] = biological target: Beta-1 adrenergic receptor (Homo sapiens, UniProt P08588); type: functional
Beta-1 adrenergic receptor, sequence (P08588 whole entry): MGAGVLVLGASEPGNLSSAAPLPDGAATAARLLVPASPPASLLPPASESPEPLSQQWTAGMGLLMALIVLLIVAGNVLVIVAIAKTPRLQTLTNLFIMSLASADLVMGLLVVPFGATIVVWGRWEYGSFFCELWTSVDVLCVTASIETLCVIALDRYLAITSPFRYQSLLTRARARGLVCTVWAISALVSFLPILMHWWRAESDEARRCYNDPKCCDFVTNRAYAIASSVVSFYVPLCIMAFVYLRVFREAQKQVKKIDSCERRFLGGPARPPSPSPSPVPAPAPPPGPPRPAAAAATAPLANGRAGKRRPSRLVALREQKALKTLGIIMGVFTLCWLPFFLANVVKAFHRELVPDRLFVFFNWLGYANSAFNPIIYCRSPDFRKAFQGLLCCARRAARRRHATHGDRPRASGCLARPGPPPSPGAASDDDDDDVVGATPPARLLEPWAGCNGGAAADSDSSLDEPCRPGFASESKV

[7] = biological target: T5, Alpha-1A adrenergic receptor (Homo sapiens, UniProt P35348)
T5 sequence (P35348 whole entry): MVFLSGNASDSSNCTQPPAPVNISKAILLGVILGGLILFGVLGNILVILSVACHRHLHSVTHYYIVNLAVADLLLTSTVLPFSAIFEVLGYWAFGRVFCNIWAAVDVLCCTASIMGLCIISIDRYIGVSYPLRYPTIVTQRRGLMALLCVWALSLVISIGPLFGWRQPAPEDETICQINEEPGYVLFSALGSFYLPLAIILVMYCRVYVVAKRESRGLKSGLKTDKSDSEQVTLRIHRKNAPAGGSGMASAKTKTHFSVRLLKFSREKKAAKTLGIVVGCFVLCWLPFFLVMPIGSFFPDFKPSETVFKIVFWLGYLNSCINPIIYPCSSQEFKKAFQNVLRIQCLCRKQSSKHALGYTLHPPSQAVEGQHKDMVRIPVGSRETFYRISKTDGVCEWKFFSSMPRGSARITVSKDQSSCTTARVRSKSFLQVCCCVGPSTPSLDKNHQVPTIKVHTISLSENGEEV

[8] = biological target: T5, Alpha-1A adrenergic receptor; type: functional, cell-based
[9] = biological target: T6, Adenosine receptor A1 (Homo sapiens, UniProt P30542)
T6 sequence (P30542 whole entry): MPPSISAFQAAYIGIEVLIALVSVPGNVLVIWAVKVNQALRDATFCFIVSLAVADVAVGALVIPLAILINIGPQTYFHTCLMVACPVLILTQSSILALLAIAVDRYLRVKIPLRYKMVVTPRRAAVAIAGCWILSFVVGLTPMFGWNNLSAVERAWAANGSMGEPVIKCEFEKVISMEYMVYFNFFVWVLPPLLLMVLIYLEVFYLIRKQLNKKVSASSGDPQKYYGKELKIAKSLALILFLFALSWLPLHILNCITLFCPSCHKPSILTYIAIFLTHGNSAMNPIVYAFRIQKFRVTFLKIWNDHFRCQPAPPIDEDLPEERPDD
Note: assay procedure not described here.

Question: Which AC50 [1] does the source give for `CCOc1nc2cccc(C(=O)O)c2n1Cc1ccc(-c2ccccc2-c2nnn[nH]2)cc1` here?
Answer: The AC50 was > 30 µM.

Question: What about the AC50 [2] of the same compound?
Answer: Its AC50 is > 10 µM.

Question: What about the AC50 [3] of the same compound?
Answer: The AC50 was > 10 µM.

Question: And the AC50 [4]?
Answer: The AC50 was 0.0005 µM.

Question: What about the AC50 [5] of the same compound?
Answer: Its AC50 is > 30 µM.

Question: And the AC50 [6]?
Answer: The AC50 was > 30 µM.

Question: And the AC50 [7]?
Answer: The AC50 was > 10 µM.

Question: `CCCc1nc2c(C)cc(-c3nc4ccccc4n3C)cc2n1Cc1ccc(-c2ccccc2C(=O)O)cc1` was tested. Which AC50 [1] did it give?
Answer: The AC50 was 2.43 µM.

Question: What about the AC50 [2] of the same compound?
Answer: Its AC50 is > 10 µM.

Question: And the AC50 [3]?
Answer: The AC50 was > 30 µM.

Question: What about the AC50 [5] of the same compound?
Answer: Its AC50 is > 30 µM.

Question: What about the AC50 [6] of the same compound?
Answer: Its AC50 is > 30 µM.

Question: What about the AC50 [7] of the same compound?
Answer: The AC50 was > 10 µM.

Question: How did the AC50 [8] turn out when `Nc1c(CC(=O)O)cccc1C(=O)c1ccc(Br)cc1` [BROMFENAC] was run?
Answer: The AC50 was > 30 µM.

Question: What about the AC50 [9] of the same compound?
Answer: Its AC50 is 23.6 µM.

Question: Which AC50 [9] does the source give for `CC(C)NC(=N)NC(=N)Nc1ccc(Cl)c(Cl)c1` [CHLORPROGUANIL] here?
Answer: Its AC50 is > 30 µM.

Question: With `C[N+](C)(C)CCOP(=O)(O)OP(=O)([O-])OC[C@H]1O[C@@H](n2ccc(N)nc2=O)[C@H](O)[C@@H]1O` [CITICOLINE] as the compound, how does the AC50 [8] read?
Answer: Its AC50 is > 30 µM.

Question: And the AC50 [9]?
Answer: The AC50 was > 30 µM.

Question: For `Cc1nc(Nc2ncc(C(=O)Nc3c(C)cccc3Cl)s2)cc(N2CCN(CCO)CC2)n1` [DASATINIB], which AC50 [1] is on record?
Answer: The AC50 was 10.2 µM.

Question: And the AC50 [2]?
Answer: The AC50 was > 10 µM.

Question: What about the AC50 [3] of the same compound?
Answer: The AC50 was > 30 µM.

Question: And the AC50 [4]?
Answer: Its AC50 is > 30 µM.

Question: And the AC50 [5]?
Answer: Its AC50 is > 30 µM.

Question: And the AC50 [6]?
Answer: The AC50 was > 30 µM.

Question: And the AC50 [7]?
Answer: The AC50 was > 10 µM.

Question: Which results are given for `O=C(O)Cc1ccccc1Nc1c(Cl)cccc1Cl` [DICLOFENAC]?
Answer: AC50 [1]: > 30 µM; AC50 [2]: > 10 µM; AC50 [8]: > 3 µM; AC50 [3]: > 30 µM; AC50 [4]: > 30 µM; AC50 [5]: > 30 µM; AC50 [6]: > 10 µM; AC50 [7]: > 10 µM

Question: Which AC50 [9] does the source give for `CN[C@@H]1[C@H](O[C@H]2[C@H](O[C@H]3[C@H](O)[C@@H](O)[C@H](NC(=N)N)[C@@H](O)[C@@H]3NC(=N)N)O[C@@H](C)[C@]2(O)CO)O[C@@H](CO)[C@H](O)[C@H]1O` [DIHYDROSTREPTOMYCIN] here?
Answer: Its AC50 is > 30 µM.

Question: Which results are given for `CC[C@H]1OC(=O)[C@H](C)[C@@H](O[C@H]2C[C@@](C)(OC)[C@@H](O)[C@H](C)O2)[C@H](C)[C@@H](O[C@@H]2O[C@H](C)C[C@H](N(C)C)[C@H]2O)[C@](C)(O)C[C@@H](C)[C@@H]2N[C@@H](COCCOC)O[C@H]([C@H]2C)[C@]1(C)O` [DIRITHROMYCIN]?
Answer: AC50 [8]: > 30 µM; AC50 [9]: > 30 µM

Question: Which AC50 [1] does the source give for `O=C(O)Cc1ccccc1Oc1ccc(Cl)cc1Cl` [FENCLOFENAC] here?
Answer: The AC50 was > 30 µM.

Question: And the AC50 [2]?
Answer: Its AC50 is > 10 µM.

Question: What about the AC50 [8] of the same compound?
Answer: Its AC50 is > 30 µM.

Question: And the AC50 [3]?
Answer: Its AC50 is > 30 µM.

Question: And the AC50 [4]?
Answer: Its AC50 is > 30 µM.

Question: What about the AC50 [5] of the same compound?
Answer: The AC50 was > 30 µM.

Question: What about the AC50 [6] of the same compound?
Answer: Its AC50 is > 10 µM.

Question: What about the AC50 [7] of the same compound?
Answer: The AC50 was > 10 µM.

Question: `Cc1ccc(C)c(OCCCC(C)(C)C(=O)O)c1` [GEMFIBROZIL] was tested. Which AC50 [1] did it give?
Answer: The AC50 was > 30 µM.

Question: What about the AC50 [2] of the same compound?
Answer: Its AC50 is > 10 µM.

Question: What about the AC50 [8] of the same compound?
Answer: The AC50 was > 30 µM.

Question: What about the AC50 [3] of the same compound?
Answer: Its AC50 is > 30 µM.

Question: And the AC50 [4]?
Answer: Its AC50 is > 30 µM.

Question: What about the AC50 [5] of the same compound?
Answer: Its AC50 is > 30 µM.

Question: And the AC50 [6]?
Answer: The AC50 was > 10 µM.

Question: What about the AC50 [7] of the same compound?
Answer: The AC50 was > 10 µM.

Question: How did the AC50 [9] turn out when `C#C[C@]1(O)C=C[C@H]2[C@@H]3CCC4=CC(=O)CC[C@@H]4[C@H]3CC[C@@]21CC` [GESTODENE] was run?
Answer: Its AC50 is > 30 µM.

Question: For `COc1ccccc1OC1(C)OC(=O)c2ccccc2O1` (configuration not stated) [GUAIMESAL], which AC50 [1] is on record?
Answer: The AC50 was > 30 µM.

Question: And the AC50 [8]?
Answer: Its AC50 is > 30 µM.

Question: What about the AC50 [3] of the same compound?
Answer: The AC50 was > 30 µM.

Question: What about the AC50 [9] of the same compound?
Answer: Its AC50 is > 30 µM.

Question: What about the AC50 [4] of the same compound?
Answer: The AC50 was > 30 µM.

Question: And the AC50 [5]?
Answer: The AC50 was > 30 µM.

Question: What about the AC50 [6] of the same compound?
Answer: Its AC50 is > 30 µM.

Question: What does the source list for `C[N+](C)(CCCCCC[N+](C)(C)C1c2ccccc2-c2ccccc21)C1c2ccccc2-c2ccccc21` [HEXAFLUORENIUM]?
Answer: AC50 [8]: 3.09 µM; AC50 [9]: > 30 µM

Source: ChEMBL document CHEMBL5291721, “A preclinical secondary pharmacology resource illuminates target-adverse drug reaction associations of marketed drugs” (Nat Commun, 2023)
